Test results taken from ChEMBL document CHEMBL5291721, “A preclinical secondary pharmacology resource illuminates target-adverse drug reaction associations of marketed drugs” (Nat Commun, 2023).

Tests used:
[1] = molecular target: Voltage-dependent L-type calcium channel subunit alpha-1C (Rattus norvegicus, UniProt P22002); assay type: functional
Cannabinoid receptor 1 [2] = molecular target: T1, Cannabinoid receptor 1 (Homo sapiens, UniProt P21554); assay type: functional, cell-based
Cannabinoid receptor 1 [3] = molecular target: T1, Cannabinoid receptor 1; assay type: functional, cell-based; remark: listed apart in the source
D(1A) dopamine receptor = D(1A) dopamine receptor (Homo sapiens, UniProt P21728); assay type: functional, cell-based
Endothelin-1 receptor = molecular target: T2, Endothelin-1 receptor (Homo sapiens, UniProt P25101)
T2 sequence (P25101 whole entry): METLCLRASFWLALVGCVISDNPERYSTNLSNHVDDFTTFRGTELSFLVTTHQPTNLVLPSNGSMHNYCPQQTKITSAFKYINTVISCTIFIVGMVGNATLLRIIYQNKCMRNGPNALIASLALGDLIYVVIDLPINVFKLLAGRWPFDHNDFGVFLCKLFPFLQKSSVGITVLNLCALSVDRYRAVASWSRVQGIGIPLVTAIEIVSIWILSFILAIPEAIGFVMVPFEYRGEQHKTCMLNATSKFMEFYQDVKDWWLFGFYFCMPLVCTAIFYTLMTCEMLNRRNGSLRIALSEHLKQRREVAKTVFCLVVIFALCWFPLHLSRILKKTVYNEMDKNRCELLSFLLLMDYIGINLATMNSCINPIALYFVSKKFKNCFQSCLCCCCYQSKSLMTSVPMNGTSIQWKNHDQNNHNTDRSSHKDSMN

Histamine H2 receptor = Histamine H2 receptor (Homo sapiens, UniProt P25021); assay type: functional, cell-based
Glucocorticoid receptor = molecular target: T3, Glucocorticoid receptor (Homo sapiens, UniProt P04150)
T3 sequence (P04150 whole entry): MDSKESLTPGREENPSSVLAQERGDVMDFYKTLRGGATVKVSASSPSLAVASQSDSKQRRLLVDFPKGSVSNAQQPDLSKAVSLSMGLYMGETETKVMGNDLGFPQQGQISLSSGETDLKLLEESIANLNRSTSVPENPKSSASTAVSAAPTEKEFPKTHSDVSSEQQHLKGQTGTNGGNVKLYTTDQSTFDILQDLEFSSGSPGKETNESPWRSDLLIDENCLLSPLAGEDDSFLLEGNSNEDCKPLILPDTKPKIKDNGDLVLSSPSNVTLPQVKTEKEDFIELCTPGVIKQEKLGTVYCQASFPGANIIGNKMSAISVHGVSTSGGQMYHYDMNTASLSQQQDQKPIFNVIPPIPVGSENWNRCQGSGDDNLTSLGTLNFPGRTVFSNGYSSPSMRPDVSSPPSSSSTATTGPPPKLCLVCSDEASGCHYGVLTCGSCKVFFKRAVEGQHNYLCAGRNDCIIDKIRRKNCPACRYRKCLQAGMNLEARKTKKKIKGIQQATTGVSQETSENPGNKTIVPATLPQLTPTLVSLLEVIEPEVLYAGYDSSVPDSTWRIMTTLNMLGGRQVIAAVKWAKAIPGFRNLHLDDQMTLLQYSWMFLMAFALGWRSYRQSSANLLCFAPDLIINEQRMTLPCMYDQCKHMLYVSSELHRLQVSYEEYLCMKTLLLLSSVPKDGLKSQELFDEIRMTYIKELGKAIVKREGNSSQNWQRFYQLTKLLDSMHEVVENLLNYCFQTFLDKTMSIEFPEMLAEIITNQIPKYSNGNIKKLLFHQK

[4] = molecular target: T4, Alpha-1A adrenergic receptor (Homo sapiens, UniProt P35348); assay type: functional, cell-based
T4 sequence (P35348 whole entry): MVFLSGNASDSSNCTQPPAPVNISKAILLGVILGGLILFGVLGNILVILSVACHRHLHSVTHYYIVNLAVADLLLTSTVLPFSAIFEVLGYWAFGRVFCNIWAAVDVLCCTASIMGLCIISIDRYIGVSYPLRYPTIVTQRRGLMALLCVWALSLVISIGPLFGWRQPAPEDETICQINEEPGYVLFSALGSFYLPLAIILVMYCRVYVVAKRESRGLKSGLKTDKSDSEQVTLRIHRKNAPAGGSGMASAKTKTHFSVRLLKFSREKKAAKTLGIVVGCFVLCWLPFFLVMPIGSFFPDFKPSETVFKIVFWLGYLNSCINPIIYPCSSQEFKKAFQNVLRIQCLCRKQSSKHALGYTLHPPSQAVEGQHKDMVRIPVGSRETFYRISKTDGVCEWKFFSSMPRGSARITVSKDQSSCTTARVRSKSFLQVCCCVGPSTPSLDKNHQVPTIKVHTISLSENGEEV

Histamine H3 receptor = Histamine H3 receptor (Homo sapiens, UniProt Q9Y5N1)
[5] = molecular target: T4, Alpha-1A adrenergic receptor
[6] = molecular target: Beta-2 adrenergic receptor (Homo sapiens, UniProt P07550); assay type: functional, cell-based
Cannabinoid receptor 1 [7] = molecular target: T1, Cannabinoid receptor 1
[8] = molecular target: T5, 5-hydroxytryptamine receptor 1A (Homo sapiens, UniProt P08908); assay type: functional, cell-based
T5 sequence (P08908 whole entry): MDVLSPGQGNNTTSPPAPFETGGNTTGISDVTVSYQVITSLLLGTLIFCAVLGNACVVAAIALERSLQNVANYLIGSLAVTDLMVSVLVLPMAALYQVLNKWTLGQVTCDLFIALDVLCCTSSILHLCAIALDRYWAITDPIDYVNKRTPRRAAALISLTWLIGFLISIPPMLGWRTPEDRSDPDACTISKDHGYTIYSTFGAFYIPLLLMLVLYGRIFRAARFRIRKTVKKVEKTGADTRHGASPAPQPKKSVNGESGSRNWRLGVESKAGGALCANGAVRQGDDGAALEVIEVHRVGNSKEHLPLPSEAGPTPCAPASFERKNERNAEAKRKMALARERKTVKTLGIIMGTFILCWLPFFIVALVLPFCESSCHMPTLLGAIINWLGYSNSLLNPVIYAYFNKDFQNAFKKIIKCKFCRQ

Melanocortin receptor 4 = Melanocortin receptor 4 (Homo sapiens, UniProt P32245)
Mu-type opioid receptor = Mu-type opioid receptor (Homo sapiens, UniProt P35372)
[9] = molecular target: T6, 5-hydroxytryptamine receptor 2A (Homo sapiens, UniProt P28223); assay type: functional, cell-based
[10] = molecular target: T6, 5-hydroxytryptamine receptor 2A; assay type: functional, cell-based; remark: listed apart in the source
Vasopressin V1a receptor = Vasopressin V1a receptor (Homo sapiens, UniProt P37288)
Also: assay procedure not described here.

Voltage-dependent L-type calcium channel subunit alpha-1C, sequence (P22002 whole entry): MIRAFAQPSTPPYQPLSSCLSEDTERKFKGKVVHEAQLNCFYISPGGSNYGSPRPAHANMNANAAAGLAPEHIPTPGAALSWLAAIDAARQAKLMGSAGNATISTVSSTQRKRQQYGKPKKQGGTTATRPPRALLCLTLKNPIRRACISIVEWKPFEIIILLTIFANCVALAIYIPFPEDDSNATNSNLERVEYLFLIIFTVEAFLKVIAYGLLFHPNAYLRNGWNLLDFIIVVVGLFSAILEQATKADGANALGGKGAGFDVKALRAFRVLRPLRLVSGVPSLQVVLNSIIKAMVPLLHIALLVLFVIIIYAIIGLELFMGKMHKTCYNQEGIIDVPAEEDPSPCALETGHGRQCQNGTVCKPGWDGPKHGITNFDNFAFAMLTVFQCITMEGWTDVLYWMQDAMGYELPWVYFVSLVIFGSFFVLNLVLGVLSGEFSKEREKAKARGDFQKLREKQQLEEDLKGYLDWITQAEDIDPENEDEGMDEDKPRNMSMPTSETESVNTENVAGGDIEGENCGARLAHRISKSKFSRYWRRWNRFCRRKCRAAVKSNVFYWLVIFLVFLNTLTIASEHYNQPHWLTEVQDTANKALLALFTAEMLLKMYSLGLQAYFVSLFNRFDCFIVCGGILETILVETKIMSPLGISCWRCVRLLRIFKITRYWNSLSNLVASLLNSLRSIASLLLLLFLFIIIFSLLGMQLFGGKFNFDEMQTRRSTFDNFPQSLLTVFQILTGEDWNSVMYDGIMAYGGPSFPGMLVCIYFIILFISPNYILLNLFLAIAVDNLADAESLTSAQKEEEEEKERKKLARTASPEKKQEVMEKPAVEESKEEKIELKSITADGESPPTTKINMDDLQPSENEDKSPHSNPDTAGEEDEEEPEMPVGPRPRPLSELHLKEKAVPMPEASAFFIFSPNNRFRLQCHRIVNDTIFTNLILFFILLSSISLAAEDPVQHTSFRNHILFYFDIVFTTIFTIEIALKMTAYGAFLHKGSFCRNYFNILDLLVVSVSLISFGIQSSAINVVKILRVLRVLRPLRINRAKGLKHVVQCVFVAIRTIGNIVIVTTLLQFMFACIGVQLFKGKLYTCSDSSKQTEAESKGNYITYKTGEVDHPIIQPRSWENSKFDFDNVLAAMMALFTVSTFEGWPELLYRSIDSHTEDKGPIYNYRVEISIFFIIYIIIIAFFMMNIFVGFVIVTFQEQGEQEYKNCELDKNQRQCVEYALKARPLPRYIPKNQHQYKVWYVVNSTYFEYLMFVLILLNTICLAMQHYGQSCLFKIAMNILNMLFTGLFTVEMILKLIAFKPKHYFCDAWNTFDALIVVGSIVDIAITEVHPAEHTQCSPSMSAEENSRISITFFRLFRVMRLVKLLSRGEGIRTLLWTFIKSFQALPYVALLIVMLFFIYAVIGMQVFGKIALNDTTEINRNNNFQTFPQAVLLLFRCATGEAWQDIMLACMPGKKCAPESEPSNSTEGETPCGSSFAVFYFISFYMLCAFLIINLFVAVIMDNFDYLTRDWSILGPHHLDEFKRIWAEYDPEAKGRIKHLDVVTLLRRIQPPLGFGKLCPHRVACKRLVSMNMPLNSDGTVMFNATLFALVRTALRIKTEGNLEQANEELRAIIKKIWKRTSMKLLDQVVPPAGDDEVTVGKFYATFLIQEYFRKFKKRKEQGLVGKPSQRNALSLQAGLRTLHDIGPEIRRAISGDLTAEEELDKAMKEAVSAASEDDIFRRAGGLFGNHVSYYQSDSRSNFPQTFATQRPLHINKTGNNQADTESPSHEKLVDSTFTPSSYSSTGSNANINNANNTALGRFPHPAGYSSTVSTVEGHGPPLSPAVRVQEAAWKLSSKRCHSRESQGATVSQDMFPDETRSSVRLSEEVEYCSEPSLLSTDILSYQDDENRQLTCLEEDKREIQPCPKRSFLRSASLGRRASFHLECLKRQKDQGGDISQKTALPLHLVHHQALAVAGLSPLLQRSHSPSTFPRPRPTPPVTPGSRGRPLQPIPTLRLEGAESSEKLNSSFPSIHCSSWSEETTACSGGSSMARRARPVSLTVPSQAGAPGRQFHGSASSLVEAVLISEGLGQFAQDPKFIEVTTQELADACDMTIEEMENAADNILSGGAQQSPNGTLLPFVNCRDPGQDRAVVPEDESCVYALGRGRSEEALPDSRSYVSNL
T6 sequence (P28223 whole entry): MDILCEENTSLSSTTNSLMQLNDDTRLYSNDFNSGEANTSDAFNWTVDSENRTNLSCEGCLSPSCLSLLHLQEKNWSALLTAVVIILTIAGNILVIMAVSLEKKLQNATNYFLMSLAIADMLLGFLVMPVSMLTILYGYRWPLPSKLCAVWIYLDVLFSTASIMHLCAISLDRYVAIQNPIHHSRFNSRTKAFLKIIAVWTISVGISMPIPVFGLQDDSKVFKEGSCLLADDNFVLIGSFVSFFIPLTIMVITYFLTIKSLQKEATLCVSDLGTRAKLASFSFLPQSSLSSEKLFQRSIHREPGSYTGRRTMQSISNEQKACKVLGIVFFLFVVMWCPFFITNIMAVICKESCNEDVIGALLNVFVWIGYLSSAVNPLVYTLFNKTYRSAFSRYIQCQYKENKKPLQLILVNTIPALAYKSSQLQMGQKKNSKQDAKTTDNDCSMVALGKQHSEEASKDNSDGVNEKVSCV
Mu-type opioid receptor, sequence (P35372 whole entry): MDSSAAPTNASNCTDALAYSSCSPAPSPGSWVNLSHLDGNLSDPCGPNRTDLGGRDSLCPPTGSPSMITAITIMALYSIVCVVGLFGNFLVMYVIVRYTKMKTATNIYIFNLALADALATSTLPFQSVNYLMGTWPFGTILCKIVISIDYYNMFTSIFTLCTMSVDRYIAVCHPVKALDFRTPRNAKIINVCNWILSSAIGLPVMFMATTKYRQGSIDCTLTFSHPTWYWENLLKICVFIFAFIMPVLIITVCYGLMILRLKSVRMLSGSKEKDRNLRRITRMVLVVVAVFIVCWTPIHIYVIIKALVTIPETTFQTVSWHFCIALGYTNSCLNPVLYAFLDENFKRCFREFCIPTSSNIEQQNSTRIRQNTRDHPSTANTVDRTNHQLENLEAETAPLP
Melanocortin receptor 4, sequence (P32245 whole entry): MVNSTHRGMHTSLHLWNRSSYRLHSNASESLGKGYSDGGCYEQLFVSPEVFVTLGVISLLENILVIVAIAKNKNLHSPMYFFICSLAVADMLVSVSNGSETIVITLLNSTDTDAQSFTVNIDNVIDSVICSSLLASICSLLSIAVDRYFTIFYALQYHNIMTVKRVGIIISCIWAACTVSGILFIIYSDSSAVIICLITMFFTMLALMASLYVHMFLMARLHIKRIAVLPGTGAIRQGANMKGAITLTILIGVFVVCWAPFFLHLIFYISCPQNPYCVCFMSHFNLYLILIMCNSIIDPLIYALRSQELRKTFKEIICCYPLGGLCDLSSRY
D(1A) dopamine receptor, sequence (P21728 whole entry): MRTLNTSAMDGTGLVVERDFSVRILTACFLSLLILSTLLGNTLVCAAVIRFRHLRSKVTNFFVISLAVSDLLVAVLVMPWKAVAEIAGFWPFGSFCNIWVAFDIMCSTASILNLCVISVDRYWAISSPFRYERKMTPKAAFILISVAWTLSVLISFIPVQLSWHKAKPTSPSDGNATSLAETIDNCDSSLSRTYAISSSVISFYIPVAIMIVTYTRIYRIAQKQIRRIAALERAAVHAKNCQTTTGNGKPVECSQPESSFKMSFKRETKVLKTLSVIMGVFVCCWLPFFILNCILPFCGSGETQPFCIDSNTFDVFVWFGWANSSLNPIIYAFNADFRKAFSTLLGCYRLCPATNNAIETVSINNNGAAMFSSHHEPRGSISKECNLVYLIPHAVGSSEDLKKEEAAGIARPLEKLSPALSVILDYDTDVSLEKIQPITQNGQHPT
T1 sequence (P21554 whole entry): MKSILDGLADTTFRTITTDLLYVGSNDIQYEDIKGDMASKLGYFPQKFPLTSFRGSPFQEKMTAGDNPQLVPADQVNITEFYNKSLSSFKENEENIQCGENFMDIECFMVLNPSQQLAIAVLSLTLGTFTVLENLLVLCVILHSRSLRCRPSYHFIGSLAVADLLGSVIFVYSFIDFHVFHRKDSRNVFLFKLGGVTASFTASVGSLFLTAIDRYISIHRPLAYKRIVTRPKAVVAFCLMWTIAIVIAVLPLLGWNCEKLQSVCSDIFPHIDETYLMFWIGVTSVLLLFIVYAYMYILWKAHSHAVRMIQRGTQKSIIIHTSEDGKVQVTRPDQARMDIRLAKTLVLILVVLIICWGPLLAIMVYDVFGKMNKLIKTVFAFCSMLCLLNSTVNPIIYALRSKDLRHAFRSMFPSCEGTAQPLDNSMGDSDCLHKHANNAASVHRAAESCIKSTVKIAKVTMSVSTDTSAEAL
Histamine H3 receptor, sequence (Q9Y5N1 whole entry): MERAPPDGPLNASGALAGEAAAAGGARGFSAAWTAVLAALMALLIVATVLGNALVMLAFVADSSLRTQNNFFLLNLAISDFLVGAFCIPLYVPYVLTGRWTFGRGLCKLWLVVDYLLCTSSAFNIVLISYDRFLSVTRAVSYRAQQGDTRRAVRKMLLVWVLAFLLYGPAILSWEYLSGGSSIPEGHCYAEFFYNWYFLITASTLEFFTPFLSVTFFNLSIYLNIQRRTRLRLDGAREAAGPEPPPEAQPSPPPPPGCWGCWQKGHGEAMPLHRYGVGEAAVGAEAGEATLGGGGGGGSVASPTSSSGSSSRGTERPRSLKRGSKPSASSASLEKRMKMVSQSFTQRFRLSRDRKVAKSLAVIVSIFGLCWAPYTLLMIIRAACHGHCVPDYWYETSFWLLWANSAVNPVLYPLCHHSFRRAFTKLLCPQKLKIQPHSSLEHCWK

SMILES	AC50 [1]	AC50 (Cannabinoid receptor 1 [2])	AC50 (Cannabinoid receptor 1 [3])	AC50 (D(1A) dopamine receptor)	AC50 (Endothelin-1 receptor)	AC50 (Histamine H2 receptor)	AC50 (Glucocorticoid receptor)	AC50 [4]	AC50 (Histamine H3 receptor)	AC50 [5]	AC50 [6]	AC50 (Cannabinoid receptor 1 [7])	AC50 [8]	AC50 (Melanocortin receptor 4)	AC50 (Mu-type opioid receptor)	AC50 [9]	AC50 [10]	AC50 (Vasopressin V1a receptor)
NC1CCN(c2nc3c(cc2F)c(=O)c(C(=O)O)cn3-c2ccc(F)cc2F)C1 (centres undefined) [TOSUFLOXACIN]	> 30 µM	> 30 µM	> 30 µM	> 30 µM	> 30 µM	> 30 µM	> 30 µM	> 30 µM	> 30 µM									
Nc1cc(-c2ccncc2)c[nH]c1=O [INAMRINONE]	> 10 µM	> 30 µM	> 30 µM	> 10 µM		> 10 µM	> 30 µM	> 30 µM	> 10 µM	> 10 µM	> 30 µM	> 10 µM	> 10 µM	> 30 µM	> 30 µM			
COc1cc2ncnc(Nc3ccc(F)c(Cl)c3)c2cc1NC(=O)/C=C/CN1CCCCC1 [DACOMITINIB ANHYDROUS]								> 30 µM								> 30 µM	> 30 µM	
CC(=O)[C@]1(O)Cc2c(O)c3c(c(O)c2[C@@H](O[C@H]2C[C@H](N)[C@H](O)[C@H](C)O2)C1)C(=O)c1ccccc1C3=O [IDARUBICIN]	> 30 µM			> 30 µM	> 30 µM	> 30 µM	0.11 µM		> 30 µM		> 30 µM							> 30 µM
O=C1CN=C(c2ccccc2)c2cc([N+](=O)[O-])ccc2N1 [NITRAZEPAM]	> 10 µM			> 30 µM		> 30 µM	> 10 µM			> 30 µM		> 10 µM	> 10 µM	> 10 µM	> 30 µM			
NC(=O)CN1CCCC1=O		> 30 µM	> 30 µM	> 30 µM	> 30 µM	> 30 µM	> 30 µM	> 30 µM	> 30 µM		> 30 µM							
CC(=O)SC[C@@H](C)C(=O)N1CCC[C@H]1C(=O)N[C@@H](Cc1ccccc1)C(=O)O	> 30 µM	> 30 µM	> 30 µM	> 30 µM	> 30 µM	> 30 µM		> 30 µM	> 30 µM							> 30 µM	> 30 µM	> 30 µM
OCc1cc(C(O)CNCCCCCCOCCCCc2ccccc2)ccc1O (centres undefined) [SALMETEROL]	> 10 µM	> 30 µM	> 30 µM	> 30 µM		> 10 µM	> 30 µM		> 10 µM			> 10 µM		> 30 µM	> 30 µM			
O=C(O)CCNC(=O)c1ccccc1 [BETAMIPRON]	> 30 µM	> 30 µM	> 30 µM	> 30 µM	> 30 µM	> 30 µM	> 30 µM	> 30 µM	> 30 µM		> 30 µM		> 30 µM					
